Assay results taken from US20130280252A1, “METHOD FOR SELECTING PATIENT TO BE GIVEN DRUG FOR TREATING SEPTICEMIA” (MOCHIDA PHARMACEUTICAL CO., LTD., priority 2011, published 2013).
Entries after “also recorded” stand apart in the source; their conditions may differ. Counter-ions that a name gives are not always drawn. Like-named read-outs stand apart in the source and are kept apart here.

How the values were obtained:
[1] = system: severe septic patients; assay: Human clinical test of E5564 in severe septic patients; format: in vivo; settings: patients meeting at least three SIRS criteria and sCD14-ST equal to or greater than cut-off
Method: (§1) According to one example of the patient selection standards, E5564 is administered to a patient who meets at least three items of the SIRS diagnostic criteria to [4] and whose sCD14-ST concentration is equal to or greater than the cut-off value. Addition of the sCD14-ST concentration to the indexes used in setting the patient selection standards enables establishment of the patient selection standards that suit the action mechanism of E5564 and thus permits further improvement in E5564 efficacy than when the patient selection standards are set using only the physiological conditions as indexes.

[2] = system: rabbit CLP model; assay: Rabbit CLP model with E5564 (Example 3-1); format: in vivo; settings: 3 mg/kg to 10 mg/kg; 1 and 5 hours or 2 and 6 hours after surgery
Method: A rabbit CLP model is prepared as in Example 1. The E5564 administration timing is set to 1 hour and 5 hours after surgery or 2 hours and 6 hours after surgery and, as in Example 1, the sCD14-ST concentration in the blood at the time the therapeutic agent is administered is later checked with reference to the blood sCD14-ST concentration transition data. The dosage of E5564 is 3 mg/kg to 10 mg/kg. The body temperature and the leukocyte count of the rabbits are measured with time and used as indexes of the physiological conditions.

[3] = system: severe septic patients; settings: high-dosage group; mortality risk 20% to 80% by APACHE II Score; cited from earlier work
[4] = system: rabbit CLP model; assay: Resatorvid-administered rabbit CLP model (Example 4); format: in vivo
Method: Two Resatorvid-administered groups were set with different administration timings. Ten mg/kg of Resatorvid was intravenously administered at timings of 1 hour and 5 hours after surgery to one group (hereinafter referred to as first-hour administered group) and 3 hours and 7 hours after surgery to the other group (hereinafter referred to as third-hour administered group). A group not to be administered Resatorvid (hereinafter referred to as control group) was administered a 10% aqueous solution of cyclodextrin, a Resatorvid solvent, 1 hour and 5 hours after surgery. Each of the groups consisted of 10 individuals; survival was checked until 48 hours after surgery. The platelet count and the leukocyte count were measured until 24 hours after surgery.

[5] = system: severe septic patients; assay: Human clinical test of Resatorvid in severe septic patients; format: in vivo; settings: patients meeting at least three SIRS criteria and sCD14-ST equal to or greater than cut-off
Method: The specific standards used for selection of patients are as follows: Severe sepsis meets at least three items of the SIRS diagnostic criteria to [4], and the patient has or is suspected to have an infection requiring treatment with antibiotics. Septic shock needs a vasopressor to maintain a systolic blood pressure of at least 90 mmHg even under an appropriate body fluid management.
as §1, with “Resatorvid” for “E5564”, “enables” for “permits”

[6] = system: rabbit CLP model; assay: Rabbit CLP model with Resatorvid (Example 2-1); format: in vivo; settings: 3 mg/kg to 10 mg/kg; 1 and 5 hours or 2 and 6 hours after surgery
Method: A rabbit CLP model is prepared as in Example 1. The Resatorvid administration timing is set to 1 hour and 5 hours after surgery or 2 hours and 6 hours after surgery and, as in Example 1, the blood sCD14-ST concentration at the time the therapeutic agent is administered is later checked with reference to the blood sCD14-ST concentration transition data. The dosage of Resatorvid is 3 mg/kg to 10 mg/kg. The body temperature and the leukocyte count of the rabbits are measured with time and used as indexes of the physiological conditions.

[7] = system: severe septic patients; settings: severe sepsis with shock or respiratory failure, cited from earlier work
[8] = system: cecal ligation and puncture-induced peritonitis rabbit model (rabbit CLP model); assay: Rabbit CLP sepsis model, F1024S-D2(3) administered (Example 1); format: in vivo; settings: for Survival time: 10 mg/kg intravenously two hours after surgery
Method: A cecal ligation and puncture-induced peritonitis rabbit model (rabbit CLP model; CLP for cecal ligation and puncture) was used as the sepsis model to verify the improvement in efficacy of the therapeutic agent for sepsis when a patient to be administered the therapeutic agent for sepsis (F1024S-D2(3)) was selected using the sCD14-ST concentration as index. The rabbit CLP model was prepared using male rabbits, New Zealand white, each weighing 1.5 kg to 1.99 kg on arrival (Kitayama Labes Co., Ltd.), which had their cecum punctured under anesthesia at two places to make holes each measuring 2 cm to release the cecal contents into the peritoneal cavity according to the method described by Keith A et al (Journal of Surgical Research, Vol. 29, 189 (1980)). In order to stabilize the postsurgical state, all the operated individuals were intravenously administered 60 mg/kg of Shiomarin (Latamoxef Sodium for administration by injection, Shionogi & Co., Ltd.) two hours after surgery.
Blood was sampled at intervals before and after surgery to measure the sCD14-ST concentrations in the blood. The sCD14-ST concentrations in the blood were measured by the method described in Example 3 in WO2009/142303. In this model, the pathology progresses within several hours, resulting in death within 7 to 8 hours after surgery in the earliest cases. Because the measured values of the sCD14-ST concentration in the blood can only be known five to six hours after blood sampling, administering the therapeutic agent only after checking the results is belated. Therefore, the administration timing of the therapeutic agent was set to two hours after surgery, and the blood sCD14-ST concentration at the time when the therapeutic agent was administered was later checked with reference to blood sCD14-ST concentration transition data. Using the respective sCD14-ST concentrations in the blood before surgery of the individuals as normal values, twice the normal values were set as the respective cut-off values. Thus, the survival rates of the cases where the sCD14-ST concentrations in the blood were at least twice the normal values at the time of administration of the therapeutic agent were compared with that of the control cases (see Table 1). The therapeutic agent-administered cases were intravenously administered 10 mg/kg of F1024S-D2(3). The control cases were intravenously administered 10 mg/kg of human immunoglobulin (hIg) in lieu of F1024S-D2(3).
The transition of the sCD14-ST concentration in the blood reflects the severity of sepsis.

[9] = system: human vascular endothelial cell; settings: cited from earlier work
[10] = system: LPS-induced sepsis rabbit model; settings: cited from earlier work
[11] = system: cecal ligation and puncture-induced peritonitis rabbit model; settings: CLP-induced peritonitis rabbit model; cited from earlier work

Molecule: CCCCCC/C=C\CCCCCCCCCC(=O)N[C@H]1[C@H](OC[C@H]2O[C@H](OP(=O)(O)O)[C@H](NC(=O)CC(=O)CCCCCCCCCCC)[C@@H](OCCCCCCCCCC)[C@@H]2O)O[C@H](COC)[C@@H](OP(=O)(O)O)[C@@H]1OCC[C@@H](CCCCCCC)OC [E5564, α-D-Glucopyranose, 3-O-decyl-2-deoxy-6-O-[2-deoxy-3-O-[(3R)-3-methoxydecyl]-6-O-methyl-2-[[(11Z)-1-oxo-11-octadecenyl]amino]-4-O-phosphono-β-D-glucopyranosyl]-2-[(1,3-dioxotetradecyl)amino]-1-(dihydrogen phosphate), tetrasodium salt]
- Efficacy when patient selection standards use sCD14-ST concentration as index [1]: improvement in E5564 efficacy can be observed
- Efficacy when sCD14-ST concentration is used as index [2]: reveals improvement in the efficacy
- Mortality rate [3]: a tendency to reduce the mortality rate was observed in a high-dosage group, but it was of no statistic significance

Molecule: CCOC(=O)C1=CCCC[C@H]1S(=O)(=O)Nc1ccc(F)cc1Cl [Resatorvid, ethyl (6R)-6-[N-(2-chloro-4-fluorophenyl)sulfonyl]cyclohex-1-ene-1-carboxylate]
- Recovery in leukocyte count, first-hour versus third-hour administered group ([4]; 10 mg/kg i.v.): observed more significantly in the first-hour administered group than in the third-hour administered group
- Survival rate versus control group ([4]; 10 mg/kg i.v. at 1 and 5 hours or 3 and 7 hours after surgery, checked until 48 hours): survival rates improved in the first-hour Resatorvid-administered group and the third-hour Resatorvid-administered group over the control group
- Platelet count ([4]; 12th hour after surgery, 10 mg/kg i.v.): showed a tendency to recover at the 12th hour after surgery, but failed to recover
- Leukocyte count versus control group ([4]; 24th hour after surgery, 10 mg/kg i.v.): showed recovery in leukocyte count as compared with the control group
- Survival rate, first-hour versus third-hour administered group ([4]; first 24 hours, 10 mg/kg i.v.): the first-hour administered group showed a higher survival rate than the third-hour administered group
- Efficacy when patient selection standards use sCD14-ST concentration as index [5]: improvement in Resatorvid efficacy can be observed
- Efficacy when sCD14-ST concentration is used as index [6]: reveals improvement in the efficacy
- Mortality rate ([7]; high-dosage group): a tendency to reduce the mortality rate was observed among the high-dosage group, it was of no statistic significance; also recorded: a tendency to reduce the mortality rate was observed in the high-dosage group, it was of no statistic significance
- Serum IL-6 level [7]: failed to suppress the serum IL-6 level

B1: F1024S-D2(3): modified form of an anti-CD14 antibody in which the domain 2 of urinary trypsin inhibitor (UTI) is bound to the anti-CD14 antibody; fusion protein (antibody)
heavy: QIQLVQSGPELKKPGESVKISCKASGYTFTDYAMNWVKQAPGNGLKWMGWINTQTGKPTYADDFKQRFVFSLETSASTAYLQINNLNIEDTATYFCTRSTFYYSSYIYGWYFDFWGPGTMVTVSSASTKGPSVFPLAPCSRSTSESTAALGCLVKDYFPEPVTVSWNSGALTSGVHTFPAVLQSSGLYSLSSVVTVPSSSLGTKTYTCNVDHKPSNTKVDKRVESKYGPPGPSGPAPEFLGGPSVFLFPPKPKDTLMISRTPEVTCVVVDVSQEDPEVQFNWYVDGVEVHNAKTKPREEQFNSTYRVVSVLTVLHQDWLNGKEYKCKVSNKGLPSSIEKTISKAKGQPREPQVYTLPPSQEEMTKNQVSLTCLVKGFYPSDIAVEWESNGQPENNYKTTPPVLDSDGSFFLYSRLTVDKSRWQEGNVFSCSVMHEALHNHYTQKSLSLSLGKGSTVAACNLPIVSGPCRAFIKLWAFDAVKGKCVLFPYGGCQGNGNKFDSEKECREYCGVPGDGDEELLRFSN
light: DIVMTQSPTSISISVGERVTMNCKASQNVGSNVDWYQQKTGQSPKLLIYKASNRYTGVPDRFTGSGSGTDFTFTISNMQAVDLAVYYCMQSNTNPPWTFGGGTKLELKRTVAAPSVFIFPPSDEQLKSGTASVVCLLNNFYPREAKVQWKVDNALQSGNSQESVTEQDSKDSTYSLSSTLTLSKADYEKHKVYACEVTHQGLSSPVTKSFNRGEC
- Survival time ([8]; Severity Especially high): 7 h
- Survival time ([8]; Severity High): 23 h
- Survival time ([8]; Severity Medium): 47 h
- Effect on survival time versus control cases ([8]; especially high severity cases): no difference in survival time was observed
- Effect on survival time versus control cases ([8]; medium to high severity cases, administered when blood sCD14-ST at least twice the normal value): an effect of prolonging the survival time was observed
- Production of IL-6 induced by LPS stimulation [9]: suppress production of IL-6
- Survival rate [10]: improve the survival rate of an LPS-induced sepsis rabbit model
- Survival rate [11]: improve the survival rate of a cecal ligation and puncture-induced peritonitis rabbit model
